Source: patent publication US10624972B2, “Conjugates for treating diseases” (priority 2015, dated 2020)
Like-named read-outs stand apart in the source and are kept apart here. *1 amine or outer side, *2 acyl side, *3 side chain or, on linkers, in order; H or OH if unused. Where a SMILES comes first, the peptide text is derived from it. The star is where a group is joined. X1 = COc1ccc(C2=CN(C(=O)c3cc(OC)c(OC)cc3N)[C@H](C3OCCN3C(=O)OCCS*)C2)cc1; X2 = COc1cc(N)c(C(=O)N2c3ccccc3C[C@H]2C2OCCN2C(=O)OCc2ccc(S*)cc2)cc1OC; Pteroyl = Nc1nc2ncc(CNc3ccc(C(=O)*)cc3)nc2c(=O)[nH]1; γGlu = O=C(O)[C@H](CCC(=O)[*:2])N[*:1]

Columns and labels:
[1] = tested on: KB cells; test: cells; type: cell-based, Human
Protocol: METHOD. Inhibition of Cellular DNA Synthesis. The conjugates described herein were evaluated using an in vitro cytotoxicity assay that predicted the ability of the drug to inhibit the growth of the corresponding targeted cells, such as, but not limited to the following
It is to be understood that the choice of cell type can be made on the basis of the susceptibility of those selected cells to the drug that forms the conjugate, and the relative expression of the cell surface receptor or target antigen. The test conjugates were conjugates of a cell surface receptor or target antigen binding compound and PBD prodrugs, poly-PBD prodrugs, and mixed PBDs, as described herein. The test cells were exposed to varying concentrations of the conjugates, and optionally also in the absence or presence of at least a 100-fold excess of the unconjugated cell surface receptor or target antigen binding compound for competition studies to assess activity as being specific to the cell surface receptor or target antigen.
EXAMPLE. Conjugates of PBD prodrugs, poly-PBD prodrugs, and mixed PBDs described herein were active against KB cells. The activity was mediated by the folate receptor as indicated by competition experiments using co-administered folic acid. KB cells were exposed for up to 7 h at 37° C. to the indicated concentrations of folate-drug conjugate in the absence or presence of at least a 100-fold excess of folic acid. The cells were then rinsed once with fresh culture medium and incubated in fresh culture medium for 72 hours at 37° C. Cell viability was assessed using a ^3H-thymidine incorporation assay. For conjugates described herein, dose-dependent cytotoxicity was generally measurable, and in most cases, the IC50 values (concentration of drug conjugate required to reduce ^3H-thymidine incorporation into newly synthesized DNA by 50%) were in the low nanomolar range.

[2] = Toxicity as measured by weight loss (test animal total body weight); type: in vivo, mice; conditions: KB tumor study; 2 μmol/kg TIW for two weeks
Protocol: METHOD. Toxicity as Measured by Weight Loss. The percentage weight change of the test animals was determined on selected days post-tumor inoculation (PTI), and during dosing. The results were graphed.

[3] = Homo sapiens, KB cells, 3H-thymidine incorporation, read-out: IC50 KB Cells
[4] = Homo sapiens, KB cells, co-administered with dithiothreitol (DTT), read-out: IC50 KB Cells

COc1ccc(C2=CN(C(=O)c3cc(OC)c(OC)cc3N)[C@H](C3OCCN3C(=O)OCCSSc3ccccn3)C2)cc1 (some centres unmarked) [EC1628]
IC50 [1, 3]: 383 nM | IC50 [1, 4]: 11 nM

COc1ccc(C2=CN(C(=O)c3cc(OC)c(OC)cc3N)[C@H](C3OCCN3C(=O)OCCSSC[C@H](NC(=O)[C@H](CC(=O)O)NC(=O)[C@H](CC(=O)O)NC(=O)[C@H](CCCNC(=N)N)NC(=O)[C@H](CC(=O)O)NC(=O)CC[C@H](NC(=O)c3ccc(NCc4cnc5nc(N)[nH]c(=O)c5n4)cc3)C(=O)O)C(=O)O)C2)cc1 (some centres unmarked) [EC1629] ({Pteroyl-γGlu}-DRDDC(X1)-OH)
toxicity as evidenced by test animal total body weight [2]: Toxicity was not observed

COc1cc(N)c(C(=O)N2c3ccccc3C[C@H]2C2OCCN2C(=O)OCc2ccc(SSC[C@H](NC(=O)[C@H](CC(=O)O)NC(=O)[C@H](CC(=O)O)NC(=O)[C@H](CCCNC(=N)N)NC(=O)[C@H](CC(=O)O)NC(=O)CC[C@H](NC(=O)c3ccc(NCc4cnc5nc(N)[nH]c(=O)c5n4)cc3)C(=O)O)C(=O)O)cc2)cc1OC (some centres unmarked) [EC1673] ({Pteroyl-γGlu}-DRDDC(X2)-OH)
IC50 [1]: ≥ 1000 nM

C=C1C[C@@H](C2OCCN2C(=O)OCCSSc2ccccn2)N(C(=O)c2cc(OC)c(OCCCCCOc3cc(N)c(C(=O)N4CC(=C)C[C@H]4C4OCCN4C(=O)OCCSSc4ccccn4)cc3OC)cc2N)C1 (some centres unmarked) [EC1695]
IC50 [1, 3]: ≥ 100 nM | IC50 [1, 4]: 1 nM

C=C1C[C@@H](C2OCCN2C(=O)OCc2ccc(SSC[C@H](NC(=O)[C@H](CC(=O)O)NC(=O)[C@H](CC(=O)O)NC(=O)[C@H](CCCNC(=N)N)NC(=O)[C@H](CC(=O)O)NC(=O)CC[C@H](NC(=O)c3ccc(NCc4cnc5nc(N)[nH]c(=O)c5n4)cc3)C(=O)O)C(=O)O)cc2)N(C(=O)c2cc(OC)c(OCCCCCOc3cc(N)c(C(=O)N4CC(=C)C[C@H]4C4OCCN4C(=O)OCc4ccc(SSC[C@H](NC(=O)[C@H](CC(=O)O)NC(=O)[C@H](CC(=O)O)NC(=O)[C@H](CCCNC(=N)N)NC(=O)[C@H](CC(=O)O)NC(=O)CC[C@H](NC(=O)c5ccc(NCc6cnc7nc(N)[nH]c(=O)c7n6)cc5)C(=O)O)C(=O)O)cc4)cc3OC)cc2N)C1 (some centres unmarked) [EC1704]
IC50 ([1]; 3 h): 0.46 nM

C=C1C[C@H]2C(=O)Nc3cc(OCCCCCOc4cc(N)c(C(=O)N5CC(=C)C[C@H]5C5OCCN5C(=O)OCCCSC[C@H](NC(=O)[C@H](CC(=O)O)NC(=O)[C@H](CC(=O)O)NC(=O)[C@H](CCCNC(=N)N)NC(=O)[C@H](CC(=O)O)NC(=O)CC[C@H](NC(=O)c5ccc(NCc6cnc7nc(N)[nH]c(=O)c7n6)cc5)C(=O)O)C(=O)O)cc4OC)c(OC)cc3C(=O)N2C1 (some centres unmarked) [EC1772]
IC50 ([1]; 3 h): 0.33 nM

C=C1C[C@@H](C2OCCN2C(=O)OCc2ccc(NC(=O)[C@H](C)NC(=O)[C@@H](NC(=O)CCCCCN3C(=O)CC(SC[C@@H](NC(=O)[C@H](CCC(=O)NC[C@H](O)[C@@H](O)[C@H](O)[C@H](O)CO)NC(=O)[C@@H](CCC(=O)O)NC(=O)[C@H](CCC(=O)NC[C@H](O)[C@@H](O)[C@H](O)[C@H](O)CO)NC(=O)[C@@H](CCC(=O)O)NC(=O)[C@H](CCC(=O)NC[C@H](O)[C@@H](O)[C@H](O)[C@H](O)CO)NC(=O)CC[C@H](NC(=O)c4ccc(NCc5cnc6nc(N)[nH]c(=O)c6n5)cc4)C(=O)O)C(=O)O)C3=O)C(C)C)cc2)N(C(=O)c2cc(OC)c(OCCCCCOc3cc(N)c(C(=O)N4CC(=C)C[C@H]4C4OCCN4C(=O)OCC4c5ccccc5-c5ccccc54)cc3OC)cc2N)C1 (some centres unmarked) [EC1911]
IC50 ([1]; 3 h): 0.7 nM

C=C1C[C@@H](C2OCCN2C(=O)OCCSSC[C@@H](NC(=O)[C@H](CCC(=O)NC[C@H](O)[C@@H](O)[C@H](O)[C@H](O)CO)NC(=O)[C@@H](CCC(=O)O)NC(=O)[C@H](CCC(=O)NC[C@H](O)[C@@H](O)[C@H](O)[C@H](O)CO)NC(=O)[C@@H](CCC(=O)O)NC(=O)[C@H](CCC(=O)NC[C@H](O)[C@@H](O)[C@H](O)[C@H](O)CO)NC(=O)CC[C@H](NC(=O)c2ccc(NCc3cnc4nc(N)[nH]c(=O)c4n3)cc2)C(=O)O)C(=O)O)N(C(=O)c2cc(OC)c(OCCCCCOc3cc(N)c(C(=O)N4CC(=C)C[C@H]4C4OCCN4C(=O)OCCSSc4ccccn4)cc3OC)cc2N)C1 (some centres unmarked) [EC1949]
IC50 ([1]; 3 h): 1.49 nM

C=C1C[C@H]2C(=O)Nc3cc(OCCCCCOc4cc(N)c(C(=O)N5CC(=C)C[C@H]5C5OCCN5C(=O)OCc5ccc(NC(=O)[C@H](C)NC(=O)[C@@H](NC(=O)CCOCCOCCOCCOCCNC(=O)CCN6C(=O)CC(SC[C@@H](NC(=O)[C@H](CCC(=O)NC[C@H](O)[C@@H](O)[C@H](O)[C@H](O)CO)NC(=O)[C@@H](CCC(=O)O)NC(=O)[C@H](CCC(=O)NC[C@H](O)[C@@H](O)[C@H](O)[C@H](O)CO)NC(=O)[C@@H](CCC(=O)O)NC(=O)[C@H](CCC(=O)NC[C@H](O)[C@@H](O)[C@H](O)[C@H](O)CO)NC(=O)CC[C@H](NC(=O)c7ccc(NCc8cnc9nc(N)[nH]c(=O)c9n8)cc7)C(=O)O)C(=O)O)C6=O)C(C)C)cc5)cc4OC)c(OC)cc3C(=O)N2C1 (some centres unmarked) [EC2074]
IC50 ([1]; 3 h): 3.6 nM

C=C1C[C@@H](C2OCCN2C(=O)OCc2ccc(NC(=O)[C@H](C)NC(=O)[C@@H](NC(=O)CCOCCOCCOCCOCCNC(=O)CCN3C(=O)CC(SC[C@@H](NC(=O)[C@H](CCC(=O)NC[C@H](O)[C@@H](O)[C@H](O)[C@H](O)CO)NC(=O)[C@@H](CCC(=O)O)NC(=O)[C@H](CCC(=O)NC[C@H](O)[C@@H](O)[C@H](O)[C@H](O)CO)NC(=O)[C@@H](CCC(=O)O)NC(=O)[C@H](CCC(=O)NC[C@H](O)[C@@H](O)[C@H](O)[C@H](O)CO)NC(=O)CC[C@H](NC(=O)c4ccc(NCc5cnc6nc(N)[nH]c(=O)c6n5)cc4)C(=O)O)C(=O)O)C3=O)C(C)C)cc2)N(C(=O)c2cc(OC)c(OCCCCCOc3ccc(-c4nc5ccc(-c6nc7cc(N8CCN(C)CC8)ccc7[nH]6)cc5[nH]4)cc3)cc2N)C1 (some centres unmarked) [EC2080]
IC50 ([1]; 3 h): 0.2 nM

C=C1C[C@@H](C2OCCN2C(=O)OCC2c3ccccc3-c3ccccc32)N(C(=O)c2cc(OC)c(OCCCCCOc3cc(NC(=O)OCc4ccc(NC(=O)[C@H](C)NC(=O)[C@@H](NC(=O)CCOCCOCCOCCOCCNC(=O)CCN5C(=O)CC(SC[C@@H](NC(=O)[C@H](CCC(=O)NC[C@H](O)[C@@H](O)[C@H](O)[C@H](O)CO)NC(=O)[C@@H](CCC(=O)O)NC(=O)[C@H](CCC(=O)NC[C@H](O)[C@@H](O)[C@H](O)[C@H](O)CO)NC(=O)[C@@H](CCC(=O)O)NC(=O)[C@H](CCC(=O)NC[C@H](O)[C@@H](O)[C@H](O)[C@H](O)CO)NC(=O)CC[C@H](NC(=O)c6ccc(NCc7cnc8nc(N)[nH]c(=O)c8n7)cc6)C(=O)O)C(=O)O)C5=O)C(C)C)cc4)c(C(=O)N4CC(=C)C[C@H]4C4OCCN4C(=O)OCC4c5ccccc5-c5ccccc54)cc3OC)cc2N)C1 (some centres unmarked) [EC2103]
IC50 ([1]; 3 h): 3.5 nM

C=C1C[C@@H](C2OCCN2C(=O)OCc2ccc(NC(=O)[C@H](C)NC(=O)[C@@H](NC(=O)CCOCCOCCOCCOCCNC(=O)CCN3C(=O)CC(SC[C@@H](NC(=O)[C@H](CCC(=O)NC[C@H](O)[C@@H](O)[C@H](O)[C@H](O)CO)NC(=O)[C@@H](CCC(=O)O)NC(=O)[C@H](CCC(=O)NC[C@H](O)[C@@H](O)[C@H](O)[C@H](O)CO)NC(=O)[C@@H](CCC(=O)O)NC(=O)[C@H](CCC(=O)NC[C@H](O)[C@@H](O)[C@H](O)[C@H](O)CO)NC(=O)CC[C@H](NC(=O)c4ccc(NCc5cnc6nc(N)[nH]c(=O)c6n5)cc4)C(=O)O)C(=O)O)C3=O)C(C)C)cc2)N(C(=O)c2cc(OC)c(OCCCCCOc3cc(N)c(C(=O)N4CC(=C)C[C@H]4C4OCCN4C(=O)OCc4ccc([N+](=O)[O-])cc4)cc3OC)cc2N)C1 (some centres unmarked) [EC2127]
IC50 ([1]; 3 h): 1.34 nM
